In brackets after ≈: the same amount, converted by molar mass.
How the values were obtained:
[1] = tested on: E. faecalis MMH594; assay: MIC assay, E. faecalis in vitro; assay type: cell-based; conditions: Enterococcus faecalis; E. faecalis MMH594 in 20% BHI, 80% M9, 37° C., 15 hours, scored by eye
Method: A culture of E. faecalis MMH594 was grown overnight in BHI broth to stationary phase at 37° C. with aeration. The culture was diluted to an approximate density of […] in worm infection media (20% BHI, 80% M9 buffer). 12.5 μl of the bacterial culture dilution was inoculated into 384-well plates containing 12.5 μl of 2-fold serial dilutions of a test compound. […] Plates were incubated at 37° C. for 15 hours and scored by eye for bacterial growth.

[2] = tested on: C. elegans infected with E. faecalis; assay: Dose response time courses in the C. elegans-E. faecalis infection assay; assay type: in vivo, Caenorhabditis elegans; conditions: Effective Concentration: survival significantly different from mock-treated, p-value <0.05, logrank; read-out: EC
Method: (§1) glp-4(bn2); sek-1 (km4) mutant worms were grown to gravid adult stage. 1,000 worms at the L1 stage were grown for 5.2 days at 15° C. on 9-cm plates of SK agar media spread with a lawn of E. coli strain HB101. Embryos from the gravid adults were isolated by a previously described hypochlorite method (see Tan et al., (1999) Proc. Natl. Acad. Sci. USA 96, 715-720) and hatched at 15° C. for 2 days. Approximately 4,500 of the Ll hatchlings were grown on each 9-cm plate of SK-NS agar (SK media with 62.5 U/ml nystatin and 100 μg/ml streptomycin) and with lawns of E. coli HB101. These worms were grown at 25° C. for 52 hours to generate sterile, young adults.
(§2) A culture of E. faecalis MMH594 was grown in BHI broth (BD Difco) with 80 μg/ml kanamycin at 37° C. for 6 hours and 100 μl of the culture were spread onto each 9-cm plate of BHI agar containing 80 μg/mlkanamycin. Lawns of E. faecalis were grown at 25° C. for 16 hours and transferred to 15° C. for 8 hours.
(§3) Sterile adult worms were resuspended in M9 buffer and washed twice with M9 in a 1:10 ratio to remove E. coli. 8,000 worms were pipetted onto each lawn of E. faecalis and incubated 15 hours at 15° C. After infection, the worms were resuspended in M9 and used as described below. 384-well plates (Corning #3712) were filled with 55 μl media (see below) using a Thermo Scientific MULTIDROP Combi reagent dispenser. 0.3 μl of a candidate compound in DSMO were pin transferred into each well using a CyBio CYBI-Well vario transfer system. The plates were agitated using an Eppendorf MIXMATE at 1,800 rpm for 15 seconds. Using the Union Biometrica Complex Object Parametric Analyzer and Sorter (COPAS) BIOSORT worm sorter according to manufacturer's protocols, 15 of the infected worms were transferred to each well in a total volume of approximately 15 μl. Total volume per well is 70 μl/well with a final composition of the media being 20% BHI, […], 80 μg/ml kanamycin, 62.5 U/ml nystatin, 1% DMSO, and 19% sheath solution (Union Biometrica Part #300-5101-000). Plates were vortexed for 5 seconds, centrifuged at 1000×g for 10 seconds, and sealed with gas permeable membranes (BREATHEASY Diversified). Plates were placed in a single layer on the top shelves in a 26.3° C. incubator at 85% relative humidity (RH) and incubated without agitation for 5 days.
The dose dependence of certain antimicrobial compounds identified by the assay above were studied. These compounds were purchased in a larger amount from commercial sources. For each of these compounds, an infection assay was performed essentially as described above at different concentrations except that SYTOX staining was not used. Instead, bright-field images of the wells were acquired at daily time points and scored manually for worm survival by analyzing worm body positioning. […] All compounds used in this assays were confirmed for their identity and purity by liquid chromatography/mass spectrometry.

[3] = tested on: MRSA infection in Caenorhabditis elegans; assay: MRSA infection assay in C. elegans (liquid); assay type: in vivo; conditions: 5 days
Description: To screen/test candidate compounds for their efficacy against Methicillin-resistant Staphylococcus aureus (MRSA) using Caenorhabditis elegans (C. elegans), a liquid high throughput screening assay was developed. In contrast to the Enterococcus faecalis infection assay, where worms are pre-infected with E. faecalis on agar prior to the start of the screening assay and then infected worms are transferred to microtiter plates using the COPAS BioSort robot, the infection of worms with MRSA occurred directly in the liquid medium. This liquid infection protocol with MRSA was developed because the COPAS BioSort, the large particle sorter used to dispense worms into multiwell plates, is a pressurized system that can generate aerosols. Because MRSA is a potentially dangerous pathogen for immune competent individuals, sorting MRSA-infected worms in the COPAS BioSort was deemed to be potentially hazardous.
The MRSA infection assay was carried out by incubating C. elegans with three MRSA strains (i.e., USA100, USA400 and MW2) in 96 or 384-well microtiter plates and assessing whether worms were live or dead after a 5 day incubation.
The MRSA infection assay was performed as follows: Worms were grown on agar using non-pathogenic E. coli as a food source until they reached the L4/young adult stage. A small volume of M9 buffer was added to the agar plates to float worms gently off the food source. The worms were then transferred into a large conical tube and washed 2 times by allowing worms to settle, aspirating the supernatant and adding fresh M9 buffer. 15 worms were then transferred using a COPAS BioSort large particle sorter into a 96-well plate containing […] of M9. […] After the worms were stained for 18 hours, images of the plates were acquired in bright field and red fluorescence channels using a Molecular Devices Discovery-1 or ImageXpress automated microscopy system. The total number of worms was counted in the bright field image and the number of dead animals are determined by positive SYTOX staining. […]

[4] = tested on: E. faecalis strain MMH594; assay: Antimicrobial (bacterial killing) assay; assay type: cell-based, Enterococcus faecalis; conditions: mM concentrations, 1 to 30 minutes, room temperature
Method: Compounds 6, 7, 15 were purchased from TimTec and ChemDiv, dissolved in DMSO at a concentration of 5 or 10 mg/ml, and further diluted in DMSO as indicated. E. faecalis strain MMH594 was grown overnight with aeration at 37° C. in Bacto brain heart infusion (BHI) broth (Becton Dickinson), transferred to ice, and washed in phosphate-buffered saline (PBS; pH 7.2). Equal volumes of a dissolved compound and bacteria were mixed, incubated at room temperature for 1 to 30 minutes, ten-fold serially diluted in PBS, and plated in […] droplets on BHI agar plates. Plates were incubated at room temperature until colonies were visible.

[5] = tested on: C. elegans infected with E. faecalis; assay: Automated infection assay for primary compound screening (SYTOX staining, CELLPROFILER); assay type: in vivo, Caenorhabditis elegans
Method: In general, the area of each well that is SYTOX-positive in the fluorescence image is measured and normalized by the total area occupied by all worms, which is quantified in the bright field image. This typically requires illumination correction to flatten lighting abnormalities, adaptive thresholding, and size- and contrast-based filters and masks to exclude debris and other artifacts. By calculating the ratio of the fluorescent area (which corresponds to the area occupied by dead worms) to the total area occupied by all worms, one can accurately determine the number of dead worms in each well. […] In a well where the worms are rescued by ampicillin treatment, 3 of the 14 worms were dead based on manual scoring. The ratio of the fluorescent area to the area occupied by all worms obtained by the CELLPROFILER analysis is correspondingly low at 0.12.
as §1, §2, §3
After 5 days, the bacteria and liquid media in the assay plates were removed as described below. First, the bacteria were re-suspended by shaking on the MIXMATE for 15 seconds at 1,800 rpm, the sealing membrane was removed, and the worms were allowed to settle to the bottom of the wells for 3 minutes. […]

## Oc1c(C(Nc2ccccn2)c2ccccc2F)cc(Cl)c2cccnc12 (stereo not shown) [Compound 1]
[1]
  MIC: 12.5 µg/mL (≈ 32.9 µM)
[2]
  minimal effective concentration: 0.78 µg/mL

## Oc1c(C(Nc2ccccn2)c2cccc(F)c2)cc(Cl)c2cccnc12 (stereo not shown) [Compound 2]
[1]
  MIC: 25 µg/mL (≈ 65.8 µM)
[2]
  minimal effective concentration: 1.56 µg/mL

## Oc1c(C(Nc2ccccn2)c2ccccn2)cc(Cl)c2cccnc12 (stereo not shown) [Compound 3]
[1]
  MIC: 12.5 µg/mL (≈ 34.5 µM)
[2]
  minimal effective concentration: 3.13 µg/mL
[3]; 6.25 and 12.5 μg/ml
  survival of MRSA-infected worms (FIG. 4): resulted in survival of MRSA-infected worms

## CC(C)(C)C1=NN(c2nc3ccc(Cl)cc3s2)C(=O)C1 [Compound 4]
[1]
  MIC: 1.56 µg/mL (≈ 5.07 µM)
[2]
  minimal effective concentration: 0.39 µg/mL

## O=C(CCSCc1ccc(Cl)cc1)N1CCN(c2ccccc2)CC1 [Compound 7]
[1]
  MIC: > 100 µg/mL
[2]
  minimal effective concentration: 25 µg/mL
[4]
  bactericidal activity (FIGS. 7A and 7B): did not show any bactericidal activity

## CSc1ccc(-c2cccs2)nn1 [Compound 8]
[1]
  MIC: > 100 µg/mL
[2]
  minimal effective concentration: 3.13 µg/mL

## Cc1c(O)ccc(/C=N/Nc2nc(-c3ccc(Br)cc3)nc3ccccc23)c1O [Compound 9]
[1]
  MIC: > 100 µg/mL
[2]
  minimal effective concentration: 3.13 µg/mL
[3]; 25 and 50 μg/ml
  survival of MRSA-infected worms (FIG. 4): resulted in survival of MRSA-infected worms

## CC(=O)O [acetic acid, reference compound]
[4]
  bactericidal activity (FIGS. 7A and 7B): did not show any bactericidal activity

## CC1(C)S[C@@H]2[C@H](NC(=O)[C@H](N)c3ccccc3)C(=O)N2[C@H]1C(=O)O [ampicillin]
[5]; ampicillin-treated wells, 21 μg/ml
  z-score, screen average: −8.70
[5]; of 14 worms in the well, ampicillin treatment
  dead worms based on manual scoring: 3
[5]; well where worms are rescued by ampicillin treatment
  ratio of the fluorescent area to the area occupied by all worms (CELLPROFILER): 0.12

## CCC(=O)O [propionic acid, reference compound]
[4]
  bactericidal activity (FIGS. 7A and 7B): did not show any bactericidal activity

From patent publication US9241928B2, “Antimicrobial compounds” (The General Hospital Corporation, priority 2009, dated 2016)
